In patent US10035800B2 (AbbVie Inc., priority 2013, dated 2018):
pEC50, pKi: −log10 of the molar value. Several values for one entry are separate records, joined by “and”; a condition that tells them apart may be missing. Equal entries are not always repeated. Where two headings read alike, the source gives them in different places. Marks after values point to notes of the source that are not given here.

Assays:
BRD4 (BDI_K57-E168) = biological target: T1, BRD4 (BDI_K57-E168) (Homo sapiens, UniProt O60885); test: TR-FRET bromodomain binding assay, first bromodomain of BRD4; conditions: 100 nM probe
T1 construct: BD1: amino acids K57-E168; made in house
How it was run: (§1)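 TR-FRET displacement of an Alexa647-labelled BET-inhibitor probe from His-tagged BRD4 BD1 or BD2 (8 nM), read via 1 nM Eu-anti-His antibody after 1 h at room temperature. Buffer was 20 mM sodium phosphate pH 6.0 with 2% DMSO. Probe was 100 nM for BDI and 30 nM for BDII. IC50 came from 4-parameter fits, and Ki from IC50, probe Kd and probe concentration.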

BRD4 (BDII_E352-M457) = biological target: T2, BRD4 (BDII_E352-M457) (Homo sapiens, UniProt O60885); test: TR-FRET bromodomain binding assay, second bromodomain of BRD4; conditions: 30 nM probe
T2 construct: protocol; made in house
How it was run: as §1

OPM-2 xenograft tumors = conditions: QD x21, SCID-beige mice
Method: Xenograft Tumor Growth Inhibition Assay
A suspension of cancer cells (5×10^6 per 0.1 mL) prepared in RPMI culture medium (Invitrogen, Carlsbad, Calif.) was diluted 1:1 with a solution of Matrigel™ (BD Biosciences, Franklin Lakes, N.J.) and inoculated subcutaneously into the right hind flank of female SCID-beige (Charles River Labs) mice. Randomization into treatment and vehicle control groups (8-10/group) occurred when the mean tumor volume reached approximately 250 mm^3. Compounds were formulated in 2.5% DMSO, 10% ethanol, 27.5% PEG 400, 60% Phosol 53 MCT. Administration of compound or vehicle was initiated on the day following randomization and continued for 21 days. Tumors were measured twice a week throughout the treatment period using a pair of calipers and tumor volumes were calculated according to the formula V=L×W^2/2 (V: volume, mm^3; L: length, mm. W: width, mm).

[1] = system: breast cancer cell line MX-1; test: MX-1 cell line proliferation assay; type: cell-based; conditions: MX-1 cells, 3-day proliferation assay, Cell Titer Glo; read-out: Cellular proliferation: EC50
How it was run: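 MX-1 cells at 5000/well, in RPMI 1640 with 10% FBS, were exposed to compounds for 3 days. Final concentrations ranged 3 μM–0.1 nM or 1 μM–0.03 nM, in 3-fold steps. Cell Titer Glo luminescence was normalized to DMSO and fitted sigmoidally for EC50; overall MSR 2.1.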

[2] = system: IL-6 (Interleukin-6) production; test: LPS (lipopolysaccharide) induced IL-6 production mouse assay; type: in vivo, mice; conditions: oral administration 1 h before LPS 2.5 mg/kg ip, serum 2 h after LPS, p < 0.05 vs vehicle
Method: LPS (Lipopolysaccharide) Induced IL-6 Production Mouse Assay
Compounds of the Examples listed in Table 2 were assayed for their ability to inhibit LPS (lipopolysaccharide) induced IL-6 (Interleukin-6) production in mice. Fox Chase SCID® female mice (Charles Rivers Labs, 5 per group) or CD1 female mice (5 per group) received an intraperitoneal challenge of lipopolysaccharide (2.5 mg/kg, L2630 E. coli 0111:B4) one hour after oral administration of compounds. Mice were euthanized 2 hours after lipopolysaccharide injection, blood was removed by cardiac puncture, and then the serum harvested from the blood samples was frozen at −80° C. On the day of the assay the serum samples were brought to room temperature and then diluted 1:20 in phosphate-buffered saline containing 2% bovine serum albumin. Interleukin-6 measurements were performed using a cytokine assay from Meso Scale Discovery (Gaithersburg, Md.) for mouse serum analysis according to the manufacturer's protocol and read on a SECTOR Imager 6000 (Meso Scale Discovery, Gaithersburg, Md.) instrument. Statistical analysis was performed using Prism software (version 5.0) incorporating Dunnett's one way ANOVA. The IL-6 mean and standard deviation of the group of vehicle treated animals were compared with the IL-6 mean and standard deviation of the group treated with drug. A p value <0.05 means that there is less than a 5% probability that the mean values in the two groups are equal.

[3] = TR-FRET assay protocol G (compound 0.92 μM-15 pM)
[4] = TR-FRET assay protocol B (compound 49.02 μM-15.63 nM)

| pKi (BRD4 (BDI_K57-E168); [3]) | pKi (BRD4 (BDII_E352-M457); [3]) | pEC50 [1] | pKi (BRD4 (BDI_K57-E168); [4]) | pKi (BRD4 (BDII_E352-M457); [4]) | Molecule | % TGI (OPM-2 xenograft tumors; 1.25 mg/kg PO) | % inhibition of LPS induced IL-6 production ([2]; mouse strain CD1) [%] | % TGI (OPM-2 xenograft tumors; 0.5 mg/kg PO) | % TGI (OPM-2 xenograft tumors; 1 mg/kg PO) | % TGI (OPM-2 xenograft tumors; 1.85 mg/kg PO) | % inhibition of LPS induced IL-6 production ([2]; mouse strain SCID) [%] | % TGI (OPM-2 xenograft tumors; 0.25 mg/kg PO) |
| --- | --- | --- | --- | --- | --- | --- | --- | --- | --- | --- | --- | --- |
| 8.17 | 8.50 | 7.70 | – | – | CCOC(=O)N1Cc2c[nH]c3c(=O)n(C)cc(c23)-c2cc(F)cc(F)c21 [Example 173, ethyl 5,7-difluoro-10-methyl-11-oxo-10,11-dihydro-1H-1,4,10-triazadibenzo[cd,f]azulene-4(3H)-carboxylate] | 49** % | 87 | – | – | – | – | – |
| 9.19 | 9.38 | 8.85 | – | – | Cn1cc2c3c(c[nH]c3c1=O)CN(c1ncc(F)cc1F)c1ccc(CS(C)(=O)=O)cc1-2 [Example 213, 4-(3,5-difluoropyridin-2-yl)-10-methyl-7-((methylsulfonyl)methyl)-3,4-dihydro-1H-1,4,10-triazadibenzo[cd,f]azulen-11(10H)-one] | – | – | 82*** % | 96*** % and 95*** % | – | – | – |
| 9.34 | 8.95 | 9.14 | – | – | Cn1cc2c3c(c[nH]c3c1=O)CN(c1ccc(F)cc1)c1ccc(CS(C)(=O)=O)cc1-2 [Example 9, 4-(4-fluorophenyl)-10-methyl-7-((methylsulfonyl)methyl)-3,4-dihydro-1H-1,4,10-triazadibenzo[cd,f]azulen-11(10H)-one] | – | – | – | – | 87*** % | 79 | – |
| 9.04 | 8.68 | 8.88 | – | – | Cn1cc2c3c(c[nH]c3c1=O)CN(c1ccccn1)c1ccc(CS(C)(=O)=O)cc1-2 [Example 207, 10-methyl-7-((methylsulfonyl)methyl)-4-(pyridin-2-yl)-3,4-dihydro-1H-1,4,10-triazadibenzo[cd,f]azulen-11(10H)-one] | – | 65 | 93*** % and 94*** % | 97*** % | – | – | 60*** % |
| 8.94 | 8.64 | 8.37 | – | – | Cn1cc2c3c(c[nH]c3c1=O)CN(C1CCOCC1)c1ccc(CS(C)(=O)=O)cc1-2 [Example 151, 10-methyl-7-((methylsulfonyl)methyl)-4-(tetrahydro-2H-pyran-4-yl)-3,4-dihydro-1H-1,4,10-triazadibenzo[cd,f]azulen-11(10H)-one] | – | 57 | – | – | – | – | – |
| 8.51 | 9.01 | 8.42 | – | – | CCNC(=O)c1[nH]c2c(=O)n(C)cc3c2c1CN(c1ccc(Cl)cc1)c1ccc(CS(C)(=O)=O)cc1-3 [Example 59, 4-(4-chlorophenyl)-N-ethyl-10-methyl-7-((methylsulfonyl)methyl)-11-oxo-3,4,10,11-tetrahydro-1H-1,4,10-triazadibenzo[cd,f]azulene-2-carboxamide] | – | 68 | – | – | – | – | – |
| – | – | 7.84 | 7.29 | 7.57 | CCOC(=O)C1c2c[nH]c3c(=O)n(C)cc(c23)-c2cc(CS(C)(=O)=O)ccc2N1CC1CC1 (centres unmarked) [Example 7, ethyl 4-(cyclopropylmethyl)-10-methyl-7-((methylsulfonyl)methyl)-11-oxo-3,4,10,11-tetrahydro-1H-1,4,10-triazadibenzo[cd,f]azulene-3-carboxylate] | – | – | – | – | – | 53 | – |
| 9.02 | 9.29 | 8.85 | – | – | 4-(2,4-difluorophenyl)-10-methyl-7-((methylsulfonyl)methyl)-11-oxo-3,4,10,11-tetrahydro-1H-1,4,10-triazadibenzo[cd,f]azulene-5-carbonitrile [Example 206] | – | 76 | – | – | – | – | – |
